In US5866558A, “6-alkynyl steroids” (Regents of the University of Minnesota, priority 1997, dated 1999):
Where “and” joins values, the source holds several entries; their conditions need not be identical. Equal values may be shown once. Read-outs that look alike come from different tables or passages of the source.

How the values were obtained:
[1] = molecular target: T1, aromatase (Homo sapiens, UniProt P11511); assay: biochemical; assay type: biochemical; parameters: Microsomes were obtained from human placentas after normal deliveries; from tissue; host or cells: human placenta, microsomes (washed twice, lyophilized)
T1 sequence (P11511 1-503): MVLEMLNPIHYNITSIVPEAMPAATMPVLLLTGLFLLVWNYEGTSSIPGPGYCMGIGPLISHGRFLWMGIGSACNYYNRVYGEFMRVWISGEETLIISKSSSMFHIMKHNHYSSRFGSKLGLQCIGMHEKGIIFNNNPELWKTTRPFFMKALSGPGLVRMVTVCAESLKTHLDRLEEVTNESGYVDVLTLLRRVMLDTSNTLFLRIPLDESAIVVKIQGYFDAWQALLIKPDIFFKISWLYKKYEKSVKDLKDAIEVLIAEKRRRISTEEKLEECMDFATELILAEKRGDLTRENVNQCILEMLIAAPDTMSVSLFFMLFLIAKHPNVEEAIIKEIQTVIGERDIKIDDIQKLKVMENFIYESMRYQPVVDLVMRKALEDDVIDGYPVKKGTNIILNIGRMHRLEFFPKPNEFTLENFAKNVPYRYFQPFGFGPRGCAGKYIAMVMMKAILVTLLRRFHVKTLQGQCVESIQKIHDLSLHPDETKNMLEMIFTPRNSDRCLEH
Procedure: (§1) Test A. Enzyme Affinity Assay
(§2) Microsomes were obtained from human placentas after normal deliveries and prepared as described previously (Ryan, K. J. "Biological aromatization of steroids" J Biol. Chem. 1959, 234, 266-272). Following isolation of the microsomal pellets (washed twice), they were lyophilized and stored at -20° C.

[2] = molecular target: T1, aromatase; assay type: biochemical; parameters: Microsomes were obtained from human placentas after normal deliveries; from tissue; host or cells: human placenta, microsomes (washed twice, lyophilized)
[3] = molecular target: T1, aromatase; assay: Test C. Ki Determination / enzyme inactivation kinetics (Kitz and Wilson); details: for T1/2 of enzyme inhibition / KI (inactivation): Table 2; for KI (inactivation): read-out: App. Ki(inact), apparent Ki for inactivation; for kinact: read-out: kcat
[4] = molecular target: T1, aromatase; assay: Aromatase inhibition, overall results of tests A, B, and C; assay type: biochemical; parameters: Microsomes were obtained from human placentas after normal deliveries; from tissue; host or cells: human placenta, microsomes (washed twice, lyophilized)
Procedure: as §1, §2
Test B. Evaluation of Time-Dependent Inhibition
This determination requires measurements at initial velocities of enzyme reaction. The enzyme activity is determined following different preincubation times at various inhibitor concentrations when assayed at a substrate concentration of at least ten times the Km of androstenedione.

[5] = Incubation with rat liver homogenates (prodrug dehydration); assay type: in vitro ADME; details: gives compound (4)
Excerpt: Accordingly, the invention includes a compound of formula III, wherein R to R^5 are defined as above; or a pharmaceutically acceptable salt thereof. The invention also includes a pharmaceutical composition comprising a compound of formula III; or a pharmaceutically acceptable salt thereof; and a pharmaceutically acceptable diluent or carrier. Because alcohols of formula III are capable of acting as prodrugs for compounds of formula I, it may be advantageous to use an alcohol of formula III in place of a corresponding compound of formula I in any of the methods disclosed herein. Accordingly, the invention includes a method for treating a disease in a human or other mammal in need thereof in which aromatase has been implicated and inhibition of its action is desired, comprising administering to said human or mammal an effective amount of a compound of formula III; or a pharmaceutically acceptable salt thereof. The invention also includes a method for inhibiting aromatase in a mammal comprising administering to said mammal an effective amount of a compound of formula III; or a pharmaceutically acceptable salt thereof.

[6] = substrate: C[C@]12CCC(=O)C=C1CC[C@@H]1[C@@H]2CC[C@]2(C)C(=O)CC[C@@H]12; assay: purified protein, by the assay type; details: other: natural substrate

For `C[C@]12C=CC(=O)C=C1C=C[C@@H]1[C@@H]2CC[C@]2(C)C(=O)CC[C@@H]12` [1,4,6-ATD, androst-1,4,6-triene-3,17-dione], the Ki ([1]; Table 1, apparent Ki, read-out: Ki (apparent)) was 136 nM, the IC50 ([1]; Table 1, human placental microsomes, read-out: IC50) was 890 nM and the “Type of Inhibition” value ([2]; Table 1) was “Irreversible/Inactivation”.

With `C[C@]12CCC(=O)C(O)=C1CC[C@@H]1[C@@H]2CC[C@]2(C)C(=O)CC[C@@H]12` [4-Hydroxy AD, 4-hydroxyandrostenedione] the IC50 ([1]; IC50) was 250 nM, the Ki ([1]; read-out: Ki (apparent)) was 40.8 nM and the “Type of Inhibition” value [2] was “Irreversible/Inactivation”.

For `C#CC[C@H]1C[C@@H]2[C@H](CC[C@]3(C)C(=O)CC[C@@H]23)[C@H]2CCC(=O)C=C12` [6α-Propargyl ED], the IC50 ([1]; IC50) was 430 nM and the “Type of Inhibition” value [2] was “Reversible”.

For `C#CC[C@H]1C[C@@H]2[C@H](CC[C@]3(C)C(=O)CC[C@@H]23)[C@@]2(C)CCC(=O)C=C12` [6α-propynyl compound, 6α-(2-propynyl)androst-4-ene-3,17-dione], the “enzyme affinity compared with other known inhibitors” value [1] was “greater enzyme affinty than other known inhibitors”.

For `C#CC[C@@H]1C[C@@H]2[C@H](CC[C@]3(C)C(=O)CC[C@@H]23)[C@@]2(C)CCC(=O)C=C12` [6β-Propargyl AD, 6β-Propargyl-4-androstene-3,17-dione], the “T1/2 of enzyme inhibition” value [3] was 7.7 min, the KI (inactivation) [3] was 46.8 nM and the kinact [3] was 0.0015 s⁻¹. For the same molecule, the “irreversibility / mechanism of inhibition” value ([3]; test C) was “irreversibly bound to the enzyme”, the “affinity for the enzyme site relative to natural substrate androstenedione” value ([3]; vs androstenedione Km) was “about five times greater” and the “aromatase inhibitory properties, in words” value [4] was “superior to other known aromatase inhibitors”. For the same molecule, the Ki ([1]; Ki (apparent)) was 9.8 nM and 87.5 nM.

With `C#CC[C@@H]1C[C@@H]2[C@H](CC[C@]3(C)C(=O)CC[C@@H]23)[C@H]2CCC(=O)C=C12` [6β-Propargyl ED, 6β-Propargyl-4-estrene-3,17-dione] the “T1/2 of enzyme inhibition” value [3] was 9.75 min, the KI (inactivation) [3] was 15.4 nM and the kinact [3] was 0.0012 s⁻¹. The IC50 ([1]; IC50) was 98 nM, the Ki ([1]; Ki (apparent)) was 43.5 nM and the “Type of Inhibition” value [2] was “Irreversible/Inactivation”.

With `C#CC[C@]12CCC(=O)C=C1CC[C@@H]1[C@@H]2CC[C@]2(C)C(=O)CC[C@@H]12` [10β-Propargyl ED, 10-(2-propynyl)estr-4-ene-3,17-dione] the IC50 ([1]; IC50) was 42 nM, the Ki ([1]; Ki (apparent)) was 26.7 nM and the “Type of Inhibition” value [2] was “Irreversible/Inactivation”.

With `C#CC[C@@H]1C[C@H]2[C@@H]3CCC(=O)[C@@]3(C)CC[C@@H]2[C@@]2(C)CCC(=O)C[C@]12O` [compound (3)] the “dehydration in the presence of rat liver homogenates” value [5] was “found to dehydrate in the presence of the homogenates to give compound (4)”.

B1: aromatase (Homo sapiens) (protein)
chain: T1 sequence (P11511 1-503)
In the case of B1, the Km [6] is reported as 0.055 µM.
